The text below walks through data of the OligoGym collection.

Only the 19 paired bases of each siRNA are shown; overhangs and chemistry are not given here.
Further: test concentration or dose not given here.

This data set concerns the target LMNA. The data set can be described thus: five studies, different assays. The note with it: siRNA.
Turning to “sense CUGGACUUCCAGAAGAACA / antisense UGUUCUUCUGGAAGUCCAG”, the target inhibition is 98%. Then “sense CUGGAGAAGACUUAUUCUG / antisense CAGAAUAAGUCUUCUCCAG”, with 98%; and “sense GAAGGAGCUGGAGAAGACU / antisense AGUCUUCUCCAGCUCCUUC”, with 93%; and “sense GAAGUGGCCAUGCGCAAGC / antisense GCUUGCGCAUGGCCACUUC”, with 70%.

Substance “sense GAGAAGACUUAUUCUGCCA / antisense UGGCAGAAUAAGUCUUCUC” returned a target inhibition of 97%. “sense GAGCUGGAGAAGACUUAUU / antisense AAUAAGUCUUCUCCAGCUC”: the target inhibition is 96%. In turn, “sense GAGGUGGUCAGCCGCGAGG / antisense CCUCGCGGCUGACCACCUC” gave a target inhibition of 80%. Turning to “sense GCAGUAUAAGAAGGAGCUG / antisense CAGCUCCUUCUUAUACUGC”, the target inhibition came out at 82%. Then “sense GCCAAAGAAAAAUAACCCU / antisense AGGGUUAUUUUUCUUUGGC”, with 96%; and “sense GCCUGCGUACGGCUCUCAU / antisense AUGAGAGCCGUACGCAGGC”, with 97%; and “sense GCUGGACAAUGCCAGGCAG / antisense CUGCCUGGCAUUGUCCAGC”, with 84%. Then “sense GCUGGAGAAGACUUAUUCU / antisense AGAAUAAGUCUUCUCCAGC”, with 96%; and “sense GCUGGCCCUGGACAUGGAG / antisense CUCCAUGUCCAGGGCCAGC”, with 79%; and “sense GCUUCGAGACCUGGAGGAC / antisense GUCCUCCAGGUCUCGAAGC”, with 96%.

As to “sense GGACCUGCAGGAGCUCAAU / antisense AUUGAGCUCCUGCAGGUCC”, the target inhibition was 45%.

In the case of “sense GGAGAAGACUUAUUCUGCC / antisense GGCAGAAUAAGUCUUCUCC”, the target inhibition stood at 95%. To “sense GGAGCUGGAGAAGACUUAU / antisense AUAAGUCUUCUCCAGCUCC” belongs 95%; to “sense GGAGGACCUGCAGGAGCUC / antisense GAGCUCCUGCAGGUCCUCC”, 83%. To “sense GGCACAGAACACCUGGGGC / antisense GCCCCAGGUGUUCUGUGCC” belongs 86%. In the case of “sense GGCAUCUGCCAGCGGCUCA / antisense UGAGCCGCUGGCAGAUGCC”, the target inhibition came to 92%. To “sense GGUGGUGACGAUCUGGGCU / antisense AGCCCAGAUCGUCACCACC” belongs 92%; to “sense GUAUAAGAAGGAGCUGGAG / antisense CUCCAGCUCCUUCUUAUAC”, 96%; to “sense GUGGCCAUGCGCAAGCUGG / antisense CCAGCUUGCGCAUGGCCAC”, 74%.

As for “sense GUUAUUUUCUACAGUGGUU / antisense AACCACUGUAGAAAAUAAC”, the target inhibition amounted to 98%. Then “sense UAACCCUUUGGUUUUUUUC / antisense GAAAAAAACCAAAGGGUUA”, with 52%; and “sense UAAGAAGGAGCUGGAGAAG / antisense CUUCUCCAGCUCCUUCUUA”, with 67%. On to “sense UAUAAGAAGGAGCUGGAGA / antisense UCUCCAGCUCCUUCUUAUA”, for which the target inhibition was found to be 90%. To “sense UCUGGUCACCCGCUCCUAC / antisense GUAGGAGCGGGUGACCAGA” belongs 83%; to “sense UGCAGCAGCAGCUGGACGA / antisense UCGUCCAGCUGCUGCUGCA”, 92%. Then “sense UGCCAGGCAGUCUGCUGAG / antisense CUCAGCAGACUGCCUGGCA”, with 81%.

The substance “sense UGGAGAAGACUUAUUCUGC / antisense GCAGAAUAAGUCUUCUCCA” displayed a target inhibition of 81%.
